The target of one assay is T1, Histone deacetylase 8 (Homo sapiens, UniProt Q9BY41).
T1 sequence (Q9BY41 whole entry): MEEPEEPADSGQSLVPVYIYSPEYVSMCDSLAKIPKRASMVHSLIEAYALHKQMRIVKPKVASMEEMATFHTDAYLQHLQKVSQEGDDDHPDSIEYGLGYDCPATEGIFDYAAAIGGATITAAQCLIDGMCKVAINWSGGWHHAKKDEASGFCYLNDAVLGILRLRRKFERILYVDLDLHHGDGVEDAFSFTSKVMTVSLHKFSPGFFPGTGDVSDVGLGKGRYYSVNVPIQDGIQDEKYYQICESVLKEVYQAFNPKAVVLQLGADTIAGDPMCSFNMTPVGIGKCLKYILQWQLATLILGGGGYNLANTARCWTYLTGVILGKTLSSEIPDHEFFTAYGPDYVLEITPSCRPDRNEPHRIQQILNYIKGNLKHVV
The experiment in a line: Inhibition of HDAC8 (unknown origin) using fluorogenic tetrapeptide RHK(Ac)K(Ac) substrate by fluorescence assay.

In a further assay the target is Histone deacetylase 3 (Homo sapiens, UniProt O15379). In words: Inhibition of HDAC3 (unknown origin) using fluorogenic tetrapeptide RHKK(Ac) substrate by fluorescence assay.
A further assay has as its target T2, Histone deacetylase 11 (Homo sapiens, UniProt Q96DB2).
T2 sequence (Q96DB2 whole entry): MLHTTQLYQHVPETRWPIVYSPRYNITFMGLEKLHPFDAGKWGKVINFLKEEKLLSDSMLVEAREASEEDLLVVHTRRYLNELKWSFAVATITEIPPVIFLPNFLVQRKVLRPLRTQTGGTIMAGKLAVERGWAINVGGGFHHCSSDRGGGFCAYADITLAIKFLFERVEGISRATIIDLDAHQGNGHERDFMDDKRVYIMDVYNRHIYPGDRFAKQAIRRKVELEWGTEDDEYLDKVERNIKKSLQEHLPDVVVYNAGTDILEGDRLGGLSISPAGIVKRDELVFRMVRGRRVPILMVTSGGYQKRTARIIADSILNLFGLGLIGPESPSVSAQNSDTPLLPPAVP
In words: Inhibition of HDAC11 (unknown origin) using fluorogenic tetrapeptide RHKK(Ac) substrate by fluorescence assay.

The next assay addresses Histone deacetylase 2 (Homo sapiens, UniProt Q92769). The experiment in a line: Inhibition of HDAC2 (unknown origin) using fluorogenic tetrapeptide RHKK(Ac) substrate by fluorescence assay.
The target in another assay is Histone deacetylase 1 (Homo sapiens, UniProt Q13547). The experiment in a line: Inhibition of HDAC1 (unknown origin) using fluorogenic tetrapeptide RHKK(Ac) substrate by fluorescence assay.
For assay [1], the target named is T3, Protein deacetylase HDAC6 (Homo sapiens, UniProt Q9UBN7).
T3 sequence (Q9UBN7 whole entry): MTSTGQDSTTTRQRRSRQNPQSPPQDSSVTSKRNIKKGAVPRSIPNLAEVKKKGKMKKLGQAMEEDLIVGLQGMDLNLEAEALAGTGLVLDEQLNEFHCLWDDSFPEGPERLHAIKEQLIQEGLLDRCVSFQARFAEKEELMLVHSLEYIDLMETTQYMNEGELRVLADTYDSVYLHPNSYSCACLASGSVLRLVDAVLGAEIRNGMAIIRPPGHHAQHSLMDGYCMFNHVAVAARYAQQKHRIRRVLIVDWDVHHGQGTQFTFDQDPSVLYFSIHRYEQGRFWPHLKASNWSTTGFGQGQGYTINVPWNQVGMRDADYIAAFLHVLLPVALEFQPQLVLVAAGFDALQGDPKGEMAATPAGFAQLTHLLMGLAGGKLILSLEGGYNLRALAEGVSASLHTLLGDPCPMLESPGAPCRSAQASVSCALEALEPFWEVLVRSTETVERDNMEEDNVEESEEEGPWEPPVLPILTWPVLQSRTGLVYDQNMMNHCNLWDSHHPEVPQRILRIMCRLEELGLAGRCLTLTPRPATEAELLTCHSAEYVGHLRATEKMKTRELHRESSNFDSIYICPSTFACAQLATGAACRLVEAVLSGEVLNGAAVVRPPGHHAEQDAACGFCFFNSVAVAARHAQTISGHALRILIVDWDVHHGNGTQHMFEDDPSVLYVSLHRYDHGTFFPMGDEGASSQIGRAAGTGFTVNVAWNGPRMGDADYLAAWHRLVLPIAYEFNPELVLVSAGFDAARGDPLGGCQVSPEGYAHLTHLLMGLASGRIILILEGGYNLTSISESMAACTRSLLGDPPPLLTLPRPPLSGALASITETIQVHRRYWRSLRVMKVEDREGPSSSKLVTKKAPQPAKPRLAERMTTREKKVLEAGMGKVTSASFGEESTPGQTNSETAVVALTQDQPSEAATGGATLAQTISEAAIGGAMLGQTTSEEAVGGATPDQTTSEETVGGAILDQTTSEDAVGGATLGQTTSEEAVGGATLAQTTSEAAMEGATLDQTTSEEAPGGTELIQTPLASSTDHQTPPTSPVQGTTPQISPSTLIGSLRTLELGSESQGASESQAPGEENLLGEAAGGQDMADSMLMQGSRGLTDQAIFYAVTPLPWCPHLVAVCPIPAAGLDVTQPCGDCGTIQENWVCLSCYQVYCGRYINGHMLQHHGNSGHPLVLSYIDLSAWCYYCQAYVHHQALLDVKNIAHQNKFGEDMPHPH
The experiment in a line: Inhibition of HDAC6 (unknown origin) using fluorogenic tetrapeptide RHKK(Ac) substrate by fluorescence assay.

The target in assay [2] is T4, Polyamine deacetylase HDAC10 (Homo sapiens, UniProt Q969S8).
T4 sequence (Q969S8 whole entry): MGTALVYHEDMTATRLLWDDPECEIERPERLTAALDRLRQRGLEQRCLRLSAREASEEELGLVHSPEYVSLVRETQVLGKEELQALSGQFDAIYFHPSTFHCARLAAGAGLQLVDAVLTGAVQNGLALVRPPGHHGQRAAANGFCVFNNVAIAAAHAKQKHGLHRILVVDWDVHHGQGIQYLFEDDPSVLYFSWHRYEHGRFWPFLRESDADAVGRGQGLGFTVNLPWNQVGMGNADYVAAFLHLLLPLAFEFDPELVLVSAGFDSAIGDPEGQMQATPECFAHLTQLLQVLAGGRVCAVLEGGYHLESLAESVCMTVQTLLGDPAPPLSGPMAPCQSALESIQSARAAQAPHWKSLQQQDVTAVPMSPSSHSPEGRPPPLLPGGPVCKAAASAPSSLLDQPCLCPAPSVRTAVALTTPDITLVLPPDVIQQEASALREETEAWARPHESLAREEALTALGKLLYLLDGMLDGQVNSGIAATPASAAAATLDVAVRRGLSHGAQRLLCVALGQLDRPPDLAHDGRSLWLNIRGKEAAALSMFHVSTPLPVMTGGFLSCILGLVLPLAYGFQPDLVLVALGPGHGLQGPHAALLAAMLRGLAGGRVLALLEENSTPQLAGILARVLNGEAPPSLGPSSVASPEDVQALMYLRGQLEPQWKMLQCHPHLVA
In words: Inhibition of HDAC10 (unknown origin) using fluorogenic tetrapeptide RHKK(Ac) substrate by fluorescence assay.

IC50 data for 16 compounds are collected here from ChEMBL document CHEMBL3352570, “ST7612AA1, a thioacetate-ω(γ-lactam carboxamide) derivative selected from a novel generation of oral HDAC inhibitors” (J Med Chem, 2014).

Sequence of Histone deacetylase 2 (Q92769 whole entry): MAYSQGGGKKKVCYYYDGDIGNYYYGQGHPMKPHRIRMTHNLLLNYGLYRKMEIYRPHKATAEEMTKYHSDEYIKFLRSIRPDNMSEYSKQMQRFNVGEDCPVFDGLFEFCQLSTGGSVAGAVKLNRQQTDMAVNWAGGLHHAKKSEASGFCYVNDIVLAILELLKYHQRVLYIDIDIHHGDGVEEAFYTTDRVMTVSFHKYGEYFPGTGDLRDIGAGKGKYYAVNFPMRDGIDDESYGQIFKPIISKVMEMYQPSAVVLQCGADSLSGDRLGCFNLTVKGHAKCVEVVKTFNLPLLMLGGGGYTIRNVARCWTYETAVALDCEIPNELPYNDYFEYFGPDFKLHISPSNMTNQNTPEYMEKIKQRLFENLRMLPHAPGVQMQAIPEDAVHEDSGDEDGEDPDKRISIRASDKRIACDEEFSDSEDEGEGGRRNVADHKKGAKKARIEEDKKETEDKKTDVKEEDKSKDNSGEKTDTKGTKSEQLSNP
Sequence of Histone deacetylase 1 (Q13547 whole entry): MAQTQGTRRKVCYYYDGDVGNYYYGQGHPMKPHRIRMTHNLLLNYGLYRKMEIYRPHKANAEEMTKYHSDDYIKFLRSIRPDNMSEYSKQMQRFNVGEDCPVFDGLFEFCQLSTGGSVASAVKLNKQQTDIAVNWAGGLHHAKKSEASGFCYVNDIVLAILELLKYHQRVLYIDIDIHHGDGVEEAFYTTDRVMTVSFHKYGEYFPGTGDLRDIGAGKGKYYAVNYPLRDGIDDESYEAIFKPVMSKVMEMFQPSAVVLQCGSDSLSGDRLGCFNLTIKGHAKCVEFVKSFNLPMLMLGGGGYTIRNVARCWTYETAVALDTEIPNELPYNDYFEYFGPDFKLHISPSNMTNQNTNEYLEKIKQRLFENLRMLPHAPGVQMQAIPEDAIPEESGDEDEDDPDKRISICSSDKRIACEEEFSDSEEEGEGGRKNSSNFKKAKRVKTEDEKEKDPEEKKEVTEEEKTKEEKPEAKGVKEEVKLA
Sequence of Histone deacetylase 3 (O15379 whole entry): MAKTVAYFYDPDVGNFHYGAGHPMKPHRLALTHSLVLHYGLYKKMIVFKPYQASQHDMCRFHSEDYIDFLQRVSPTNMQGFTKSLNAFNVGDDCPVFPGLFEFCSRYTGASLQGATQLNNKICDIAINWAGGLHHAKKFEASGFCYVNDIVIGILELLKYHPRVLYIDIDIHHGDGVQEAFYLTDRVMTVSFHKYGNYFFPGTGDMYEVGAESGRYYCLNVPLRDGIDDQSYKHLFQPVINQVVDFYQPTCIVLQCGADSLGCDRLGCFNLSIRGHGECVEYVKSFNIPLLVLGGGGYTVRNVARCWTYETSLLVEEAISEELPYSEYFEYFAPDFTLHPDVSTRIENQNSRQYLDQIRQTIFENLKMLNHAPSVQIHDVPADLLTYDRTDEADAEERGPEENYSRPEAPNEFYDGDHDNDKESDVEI

Take `O=C1NC[C@H](c2ccccc2)[C@@H]1C(=O)N[C@@H](CCCCCS)C(=O)Nc1ccccc1`: the IC50 against Histone deacetylase 8 is 310 nM; against Histone deacetylase 3, 9 nM; at Histone deacetylase 11, 13 nM; on Histone deacetylase 2, 168 nM; on Histone deacetylase 1, 32 nM; in assay [1] it was 4 nM. The compound further gave an IC50 in assay [2] of 14 nM.

Consider `O=C1CC[C@@H](C(=O)N[C@@H](CCCCCS)C(=O)Nc2ccccc2)N1`, for which the IC50 worked out at 59 nM on Histone deacetylase 8; 13 nM against Histone deacetylase 3; 30 nM against Histone deacetylase 11; 33 nM on Histone deacetylase 2; 24 nM against Histone deacetylase 1; 1 nM in assay [1]. In assay [2], half-maximal inhibition (IC50) required 15 nM.

Consider `Cc1cccc(NC(=O)[C@H](CCCCCS)NC(=O)[C@H]2CCC(=O)N2C)c1`, for which the concentration for half-maximal inhibition (IC50) on Histone deacetylase 8 turned out to be 99 nM; on Histone deacetylase 3 it was 5 nM; against Histone deacetylase 11, 12 nM; at Histone deacetylase 2, 5 nM; against Histone deacetylase 1, 3 nM; in assay [1] it was 1 nM. Besides, inhibition in assay [2] was half-maximal at 2 nM (IC50).

In the case of `Cc1ccc(NC(=O)[C@H](CCCCCS)NC(=O)[C@@H]2CCCC(=O)N2)cc1`, the IC50 against Histone deacetylase 8 was 360 nM; on Histone deacetylase 3, 3 nM; against Histone deacetylase 11, 3 nM; on Histone deacetylase 2, 60 nM; against Histone deacetylase 1, 8 nM; in assay [1], 2 nM. This compound also returned an IC50 in assay [2] of 4 nM.

As to `O=C1CC[C@H](C(=O)N[C@@H](CCCCCS)C(=O)Nc2cccc(C(F)(F)F)c2)N1`, the IC50 against Histone deacetylase 8 is 316 nM; on Histone deacetylase 3, 11 nM; against Histone deacetylase 11, 44 nM; against Histone deacetylase 2, 12 nM; on Histone deacetylase 1, 5 nM; in assay [1], 5 nM. In assay [2], half-maximal inhibition (IC50) was put at 7 nM.

Consider `O=C1NC[C@@H](c2ccccc2)[C@@H]1C(=O)N[C@@H](CCCCCS)C(=O)Nc1ccccc1`, for which the IC50 on Histone deacetylase 8 is 40 nM; against Histone deacetylase 3, 2 nM; at Histone deacetylase 11, 4 nM; against Histone deacetylase 2, 37 nM; against Histone deacetylase 1, 7 nM; in assay [1] it was 4 nM. Inhibition in assay [2] was half-maximal at 5 nM (IC50).

Turning to `O=C1CC[C@H](C(=O)N[C@H](CCCCCS)C(=O)Nc2ccccc2)N1`, the IC50 against Histone deacetylase 8 stood at 8100 nM; on Histone deacetylase 3, 138 nM; against Histone deacetylase 11, 102 nM; on Histone deacetylase 2 it was 171 nM; at Histone deacetylase 1, 101 nM; in assay [1], 21 nM. The same compound yielded an IC50 in assay [2] of 40 nM.

In the case of `O=C(CCCCCCS)NC1CCCC1`, the IC50 against Histone deacetylase 8 was 2330 nM; at Histone deacetylase 3, 897 nM; against Histone deacetylase 11 it was 776 nM; against Histone deacetylase 2, 6640 nM; at Histone deacetylase 1, 865 nM; in assay [1], 87 nM. The same compound showed an IC50 in assay [2] of 1170 nM.

As for `Cc1cccc(CCNC(=O)CCCCCCS)c1`, the IC50 against Histone deacetylase 8 stood at 246 nM; at Histone deacetylase 3, 2600 nM; at Histone deacetylase 11, 1870 nM; on Histone deacetylase 2, 10700 nM; against Histone deacetylase 1, 3210 nM; in assay [1], 2710 nM. In addition, inhibition in assay [2] was half-maximal at 3930 nM (IC50).

Take `O=C1NC[C@H](c2ccccc2)[C@H]1C(=O)N[C@@H](CCCCCS)C(=O)Nc1ccccc1`: the IC50 turned out to be 2040 nM at Histone deacetylase 8; 55 nM at Histone deacetylase 3; 12 nM against Histone deacetylase 11; 2230 nM against Histone deacetylase 2; 53 nM at Histone deacetylase 1; 160 nM in assay [1]. This compound also yielded an IC50 in assay [2] of 7 nM.

As for `O=C1NCCC[C@H]1C(=O)N[C@@H](CCCCCS)C(=O)Nc1ccccc1`, the IC50 stood at 62 nM against Histone deacetylase 8; 3 nM against Histone deacetylase 3; 9 nM at Histone deacetylase 11; 28 nM at Histone deacetylase 2; 7 nM on Histone deacetylase 1; 1 nM in assay [1]. The compound further had an IC50 in assay [2] of 9 nM.

Take `CN1C(=O)CC[C@@H]1C(=O)N[C@@H](CCCCCS)C(=O)Nc1ccccc1`: the IC50 was determined as 545 nM against Histone deacetylase 8; 49 nM on Histone deacetylase 3; 67 nM on Histone deacetylase 11; 103 nM against Histone deacetylase 2; 58 nM on Histone deacetylase 1; 5 nM in assay [1]. This compound also had an IC50 in assay [2] of 116 nM.

Turning to `Cc1cccc(CCNC(=O)[C@H](CCCCCS)NC(=O)[C@@H]2CCCC(=O)N2)c1`, the IC50 is 17 nM against Histone deacetylase 8; 122 nM against Histone deacetylase 3; 82 nM against Histone deacetylase 11; 601 nM against Histone deacetylase 2; 92 nM on Histone deacetylase 1; 15 nM in assay [1]. In addition, the IC50 in assay [2] worked out at 81 nM.

On to `O=C1CCC[C@@H](C(=O)N[C@@H](CCCCCS)C(=O)NC2CCCC2)N1`, for which the IC50 against Histone deacetylase 8 amounted to 450 nM; on Histone deacetylase 3 it was 98 nM; against Histone deacetylase 11, 89 nM; on Histone deacetylase 2 it was 454 nM; against Histone deacetylase 1, 160 nM; in assay [1], 6 nM. Further, the IC50 in assay [2] was 189 nM.

With `O=C1NCCC[C@@H]1C(=O)N[C@@H](CCCCCS)C(=O)Nc1ccccc1`, the IC50 came to 122 nM on Histone deacetylase 8; 5 nM against Histone deacetylase 3; 15 nM against Histone deacetylase 11; 48 nM at Histone deacetylase 2; 12 nM at Histone deacetylase 1; 1 nM in assay [1]. Besides, 11 nM corresponded to half-maximal inhibition in assay [2] (IC50).

In the case of `O=C1CCC[C@H](C(=O)N[C@@H](CCCCCS)C(=O)Nc2ccccc2)N1`, the IC50 stood at 107 nM against Histone deacetylase 8; 6 nM against Histone deacetylase 3; 10 nM against Histone deacetylase 11; 34 nM at Histone deacetylase 2; 10 nM against Histone deacetylase 1; 5 nM in assay [1]. This compound also displayed an IC50 in assay [2] of 32 nM.
